Values joined by “and” are separate entries in the source; they are usually repeats but may differ in a detail not shown here. Identical values can stand only once.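 Briefly, cells in 96-well plates were exposed to five compound concentrations for 48 h, and endpoints were estimated by linear interpolation. GI50 marks 50% less growth. Definition used: TGI = concentration required for complete inhibition of growth.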
What was measured:
Experiment in all cases: NCI-60 cell line screen, 48 h
NCI-H23 lung = system: NCI-H23 lung
SF-268 CNS = system: SF-268 CNS
BT-549 breast = system: BT-549 breast
M14 melanoma = system: M14 melanoma
ACHN renal = system: ACHN renal
NCI/ADR-RES ovarian = system: NCI/ADR-RES ovarian
MOLT-4 leukemia = system: MOLT-4 leukemia
SK-MEL-2 melanoma = system: SK-MEL-2 melanoma
LXFL 529 NSCLC = system: LXFL 529 NSCLC
DMS 273 small cell lung = system: DMS 273 small cell lung

Row | Compound | GI50 (NCI-H23 lung) | TGI (NCI-H23 lung) | GI50 (SF-268 CNS) | TGI (SF-268 CNS) | GI50 (BT-549 breast) | TGI (BT-549 breast) | GI50 (M14 melanoma) | TGI (M14 melanoma) | GI50 (ACHN renal) | TGI (ACHN renal) | GI50 (NCI/ADR-RES ovarian) | TGI (NCI/ADR-RES ovarian) | GI50 (MOLT-4 leukemia) | TGI (MOLT-4 leukemia) | GI50 (SK-MEL-2 melanoma) | TGI (SK-MEL-2 melanoma) | TGI (LXFL 529 NSCLC) | GI50 (LXFL 529 NSCLC) | GI50 (DMS 273 small cell lung) | TGI (DMS 273 small cell lung)
1 | CCCCCCCCCCCCCC(=S)NCCCC[C@H](NC(=O)OCc1ccccc1)C(=O)Nc1ccccc1 | 4.14 µM | > 100 µM | 5.84 µM | > 100 µM | 39.6 µM | > 100 µM | 4.66 µM | > 100 µM | 3.15 µM | 19.7 µM | 5.11 µM | > 100 µM | 3.91 µM | > 100 µM | 3.48 µM | 26.9 µM |  |  |  | 
2 | COc1cccc(/C=C/C(=O)c2cc3c(N)c(C(=O)Nc4ccccc4C)sc3nc2C)c1 | 1.76 µM | 8.93 µM | 1.78 µM | 7.66 µM | 1.5 µM | 5.83 µM | 1.59 µM | 6.42 µM | 0.894 µM | 1.86 µM | 1.51 µM | > 50 µM | 1.49 µM | 27.8 µM | 1.7 µM | 8.18 µM |  |  |  | 
3 | CC(C)(C)OC(=O)NC(Cc1ccccc1)C(=O)OCN1C(=O)C2C3C=CC(C2C1=O)C1C2C(=O)N(COC(=O)C(Cc4ccccc4)NC(=O)OC(C)(C)C)C(=O)C2C31 (stereo not drawn) |  | > 100 µM |  | > 88.9 µM |  | 92.6 µM |  | > 100 µM |  | > 100 µM |  | > 100 µM |  | 82.4 µM |  | 98.5 µM |  |  |  | 
4 | Cc1ccccc1C(C#N)C(=O)C(=O)Nc1nc([N+](=O)[O-])cs1 (stereo not drawn) |  | > 100 µM |  | > 100 µM |  |  |  | > 100 µM |  | > 100 µM |  |  |  |  |  |  | > 100 µM |  |  | 
5 | CC(=O)Nc1cccc(-n2c(=O)n(C3CC3)c(=O)c3c(Nc4ccc(I)cc4F)n(C)c(=O)c(C)c32)c1 | < 0.01 µM and 0.0212 µM | 19.3 µM and > 10 µM | 3.85 µM and > 6.08 µM | > 100 µM | 6.33 µM and > 9.61 µM | 35.5 µM and > 10 µM | < 0.01 µM and 0.00173 µM | < 0.01 µM | 0.49 µM and 0.291 µM | > 79.5 µM | 2.29 µM and > 10 µM | 40.6 µM and > 10 µM | 6.96 µM and > 9.64 µM | > 100 µM | < 0.01 µM and 0.002 µM | 0.0544 µM |  |  |  | 
6 | CC(=O)[CH-]C(=O)c1ccccc1.CC(=O)[CH-]C(=O)c1ccccc1.CCCCCCCCCCCCCCCCCC(=O)[O-].CCCCCCCCCCCCCCCCCC(=O)[O-].[Ti+4] | 36.1 µM | > 100 µM | 21.6 µM | 47.6 µM |  |  | 17.4 µM | 31.9 µM |  |  |  |  | 21.7 µM | 62 µM | 21.7 µM | 52.4 µM | 34.6 µM | 18 µM | 20.1 µM | 38.7 µM
7 | COc1cc(-n2cc(-c3ccc(Cl)c(Cl)c3)nc2SCc2ccccc2)cc(OC)c1OC | > 100 µM | > 100 µM | > 100 µM | > 100 µM | > 100 µM | > 100 µM | > 100 µM | > 100 µM | > 100 µM | > 100 µM | > 100 µM | > 100 µM | 55.9 µM | > 100 µM | > 100 µM | > 100 µM |  |  |  | 
8 | CC(C)(C)c1cc(O)c(O)c(C(C)(C)C)c1 | 3.64 µM | 14.2 µM | 4.77 µM | 16.1 µM | 8.71 µM | 21 µM | 3.91 µM | 13.8 µM | 2.15 µM | 4.13 µM | 3.54 µM | 17.9 µM | 3.03 µM | 8.67 µM | 3.74 µM | 11.4 µM |  |  |  | 
9 | Oc1ccccc1/C=N/Nc1ccc2ccccc2n1 | 3.36 µM | > 100 µM | 3.09 µM | 69.3 µM | 8.08 µM | > 100 µM | 3.65 µM | > 100 µM | 2.86 µM | 68.6 µM | 1.95 µM | > 100 µM | 2.6 µM | > 100 µM | 30 µM | > 100 µM |  |  |  | 
10 | CNC(=O)c1ccccc1CC1(O)c2ccccc2Oc2ccccc21 | 26 µM | > 100 µM | 24.2 µM | 85.9 µM | 25.9 µM | > 100 µM | 15.3 µM | 56.6 µM | 26.2 µM | > 100 µM | 10.1 µM | 86.9 µM | 36.4 µM | > 100 µM | 14.2 µM | 34.5 µM |  |  |  | 
11 | C1COCCN1.C1COCCN1.N.N.[Cl-].[Pt+2] | > 100 µM | > 100 µM |  |  |  |  | > 100 µM | > 100 µM |  |  |  |  |  |  | > 100 µM | > 100 µM | > 100 µM | > 100 µM | > 100 µM | > 100 µM
12 | CN=C(N)N/N=C(\c1ccccc1)c1ccc(Br)cc1 | 0.562 µM | 11.8 µM | 0.685 µM | 11.8 µM | 1.5 µM | 12.7 µM | 0.272 µM | 0.872 µM | 0.467 µM | 10.1 µM | 0.322 µM | 3.25 µM | 0.362 µM | 7.3 µM | 0.359 µM | 1.97 µM |  |  |  | 
13 | C[C@@H]1CC[C@@H]2[C@@H]1[C@H](OC(=O)/C=C/c1ccccc1)[C@]1(c3ccccc3)C[C@@H](OC(=O)CO)[C@@]2(C)O1 | 15 µM | 35.9 µM | 10.4 µM | 37.7 µM | 0.406 µM | 17.7 µM | 16.2 µM | 35.8 µM | 0.179 µM | 0.597 µM | 4.41 µM | 24.9 µM | 6.86 µM | 33.9 µM | 19.6 µM | 38.3 µM |  |  |  | 
14 | O=C(/C=C/c1ccc(Cl)cc1)c1ccc(Cl)cc1Cl | 4.55 µM | 12.4 µM | 10.1 µM | 21.8 µM | 7.44 µM | 14.8 µM | 10.9 µM | 24.2 µM | 0.213 µM | 10.9 µM | 0.331 µM | 15.5 µM | 0.915 µM | 2.12 µM | 9.55 µM | 18.9 µM |  |  |  | 
15 | Cc1nn(-c2ccc(S(=O)(=O)[O-])cc2)c([O-])c1N=[N+](C)c1ccc(-c2ccc(N=Nc3ccc4c(S(=O)(=O)[O-])cc(S(=O)(=O)[O-])c(N)c4c3[O-])c([O-])c2)cc1[O-].[Cu+2].[Cu+2].[Na+] | > 100 µM | > 100 µM | > 100 µM | > 100 µM | > 100 µM | > 100 µM | > 100 µM | > 100 µM | > 100 µM | > 100 µM | > 100 µM | > 100 µM | > 100 µM | > 100 µM | > 100 µM | > 100 µM |  |  |  | 

Source: PubChem BioAssay (NCI)
